Among the data in the COVID Moonshot data (paper PMC7615835) are IC50 values, retold here.

Molecules are shown by their SMILES. Values joined by “and” are separate entries in the source; they are usually repeats but may differ in a detail not shown here. Identical values can stand only once.

This assay concerns the target SARS-CoV-2 Main Protease (SARS-CoV-2) (UniProt P0DTD1).
As usually defined, the IC50 is the concentration that gives 50% inhibition. Higher therefore signals a need for much substance. The compound `Cn1ccnc1CN(C(=O)CC1(C(=O)Nc2cncc3ccccc23)CCOc2ccc(Cl)cc21)C1CC1` (centres undefined) came in with an IC50 of 5.05 µM. The same measure for `O=C(Cc1ccc(Cl)c(F)c1)Nc1cncc2ccccc12`: 2.03 µM.

Compound `O=C(Cc1ccccc1Cl)Nc1cncc2ccccc12` came in with an IC50 of more than 99.5 µM.

On to `O=C(Nc1cncc2c1CCCC2)[C@@H]1CNS(=O)(=O)c2ccc(Cl)cc21` (stereo in doubt), for which the IC50 was 0.205 µM. As for `COC(=O)C(C(=O)Nc1cnccc1C)c1cccc(Cl)c1` (centres undefined), the IC50 is 23.7 µM. The same measure for `CC(C)(C)c1ccc(N(C(=O)c2ccco2)C(C(=O)N2CCOCC2)c2cccnc2)cc1` (centres undefined): 41 µM; for `O=C(Nc1cncc2ccccc12)C1c2cc(Cl)ccc2CCN1S(=O)(=O)C1CC1` (centres undefined): 1.14 µM.

Take `CC(C)(C)c1ccc(N(C(=O)c2cnsn2)C(C(=O)NCCc2cccc(F)c2)c2cccnc2)cc1` (centres undefined): the IC50 amounted to 13.2 µM. For `O=C(Nc1cncc2ccccc12)c1ccnc2cc(Cl)c(Cl)cc12` the value was 28.1 µM; for `CC(C)(C)c1ccc(N(C(=O)c2cocn2)C(C(=O)NCCc2cccc(F)c2)c2cccnc2)cc1` (centres undefined), 0.557 µM. Compound `CC(=O)NCCc1c[nH]c2c(CN3CCN(C(=O)CCl)CC3)cccc12` yielded an IC50 of 17.4 µM. The same measure for `Cc1ccncc1NC(=O)C(C)c1cc(Cl)cc(OC2CC(=O)N2)c1` (centres undefined): 77.1 µM. For `O=C(NCCc1cccc(F)c1)C(c1cccnc1)N(C(=O)c1cnc[nH]1)c1ccc2c(c1)CCC(=O)N2CC(F)F` (centres undefined) the value was 47.8 µM. The same measure for `CNC(=O)CN1CC(C(=O)Nc2cncc3ccc(S(C)(=O)=O)cc23)c2cc(Cl)ccc2C1=O` (centres undefined): 0.33 µM; for `COCCc1ccc(Cl)cc1CN1CCN(C(=O)CCl)CC1`: 2.2 µM.

Compound `O=C(Nc1cncc2ccccc12)C1CCCc2ccc(Cl)cc21` (centres undefined) had an IC50 of 0.324 µM. The same measure for `O=C(Cc1cc(Cl)cc(Nc2cc(F)c(F)cc2Br)c1)Nc1cncc2ccccc12`: 2.16 µM. The same measure for `COc1nc(Br)cnc1Nc1cc(Cl)cc(CC(=O)Nc2cncc3ccccc23)c1`: 2.05 µM; for `O=C(NNC(=O)c1cccc(-n2nccc2C(F)(F)F)c1)OCc1ccccc1`: more than 99.5 µM. The same measure for `O=C(Cc1cc(Cl)cc(Nc2ccc(F)cc2Br)c1)Nc1cncc2ccccc12`: 2.04 µM.

On to `COC(=O)c1c(C)nn(C(=O)c2cccs2)c1-c1snnc1C`, for which the IC50 came to 5.72 µM. Turning to `O=C(Cc1cc(Cl)cc(Nc2ccc(Cl)c(Cl)c2F)c1)Nc1cncc2ccccc12`, the 50% inhibitory concentration (IC50) was determined as 2.26 µM.

Take `O=C(NCC1=[SH]C=CC1)[C@@H](c1ccccc1)N1Cc2ccccc2C1=O` (stereo in doubt): the IC50 is more than 99.5 µM. The same measure for `O=C(Cc1cc(Cl)cc(Nc2cc(Cl)c(Br)cn2)c1)Nc1cncc2ccccc12`: 1.97 µM; for `CCCc1cc2c(cc1S(=O)(=O)N1CCN(c3cccc(Cl)c3Cl)CC1)OCO2`: more than 99.5 µM. For `Cc1ccncc1CC(=O)Nc1cccc(Cl)c1` the value was 29.9 µM; for `O=C(CCl)NC(CO)c1cccc(Cl)c1` (centres undefined), more than 99 µM; for `CCCCc1nc(-c2nccn2Cc2ccoc2)c[nH]1`, 14.3 µM. For `O=C(C[C@@]1(C(=O)Nc2cncc3ccccc23)CCOc2ccc(Cl)cc21)N1CCN(C2CCOC2)CC1` (stereo in doubt) the value was 46.5 µM. The compound `Cc1cc(C)n2ncc(C(=O)Nc3ccc4ncsc4c3)c2n1` returned an IC50 of more than 99.5 µM. The same measure for `CS(=O)(=O)c1ccc(O)c(Nc2cc(Cl)cc(CC(=O)Nc3cncc4ccccc34)c2)c1`: 7.61 µM. For `O=C(Cc1cc(Cl)cc(Nc2ccc3nccnc3c2Br)c1)Nc1cncc2ccccc12` the value was 1.97 µM; for `Cc1ccncc1NC(=O)CN1C(=O)COc2ccc(Cl)cc21`, 59.9 µM. For `CNC(=O)CN1CC(C(=O)Nc2cncc3ccc(C(C)(C)O)cc23)c2cc(Cl)ccc2C1=O` (centres undefined) the value was 0.384 µM. For `CC(C)Cn1cc(NC(=O)NCc2ccco2)c2ccccc2c1=O`, the IC50 is 29.6 µM. The same measure for `Cc1cccc2cncc(N3CCC4(CCOc5ccc(Cl)cc54)C3)c12` (centres undefined): more than 99.5 µM. With `CC(C)(C)c1ccc(N(C(=O)c2cocn2)C(C(=O)NC2CCOC2)c2cccnc2)cc1` (centres undefined), the concentration for half-maximal inhibition (IC50) was found to be 2.77 µM. The compound `Cc1ccncc1NC(=O)C(CO)c1cccc(Cl)c1` (centres undefined) returned an IC50 of more than 99.5 µM. For `Cc1ccc([N+](=O)[O-])c(Nc2cc(Cl)cc(CC(=O)Nc3cncc4ccccc34)c2)c1` the value was 2.26 µM. The same measure for `O=C(Nc1cncc2ccccc12)C1CN(S(=O)(=O)CC2CC2(F)F)Cc2ccc(Cl)cc21` (centres undefined): 0.159 µM; for `CCC1(C(=O)Nc2cncc3ccc(S(C)(=O)=O)cc23)CNC(=O)c2ccc(Cl)cc21` (centres undefined): 1.45 µM. For `CC(C)(C)c1ccc(N(C(=O)c2cocn2)C(C(=O)NCC(=O)Nc2cccc([N+](=O)[O-])c2)c2cccnc2)cc1` (centres undefined) the value was 14.4 µM. Consider `CC(C)(C)OC(=O)CNC(=O)C(c1cccnc1)N(C(=O)c1cocn1)c1ccc(C(C)(C)C)cc1` (centres undefined), for which the IC50 was 8.18 µM. The same measure for `O=C(CN1CC(C(=O)Nc2cncc3cc(F)ccc23)c2cc(Cl)ccc2C1=O)NC1CC1` (centres undefined): 0.556 µM. The same measure for `N[C@@H](Cc1ccc(O)cc1)C(=O)Nc1cc(Cl)cc(CC(=O)Nc2cncc3ccccc23)c1` (stereo in doubt): 2.51 µM; for `COC(=O)CNC(=O)C(c1cccnc1)N(C(=O)c1cocn1)c1ccc(C(C)(C)C)cc1` (centres undefined): 10.8 µM; for `Cc1ccc2c(NC(=O)Cc3cccc(Cl)c3)cncc2c1`: 1.24 µM. The same measure for `COc1ccccc1N(C(=O)c1ccco1)C(C(=O)NCCc1cccc(F)c1)c1cccnc1` (centres undefined): more than 99.5 µM; for `Cn1cnc(C(=O)N(c2ccc(C(C)(C)C)cc2)C(C(=O)NCCc2cccc(F)c2)c2cccnc2)cc1=O` (centres undefined): more than 99.5 µM.

`CCOC(=O)c1ncoc1CNC(=O)C(c1cccnc1)N(C(=O)c1cocn1)c1ccc(C(C)(C)C)cc1` (centres undefined): the IC50 stood at 5.88 µM. This lies in the single-digit micromolar range. For `CC(C)(C)c1ccc(N(C(=O)c2nc(CN3CCOCC3)cs2)C(C(=O)NCCc2cccc(F)c2)c2cccnc2)cc1` (centres undefined) the value was more than 99.5 µM. The same measure for `N#CC1(CS(=O)(=O)N2Cc3ccc(Cl)cc3C(C(=O)Nc3cncc4cc(Cl)ccc34)C2)CC1` (centres undefined): 0.283 µM; for `COC1(C(=O)Nc2cncc3cc(S(=O)(=O)N(C)C)ccc23)CCOc2ccc(Cl)cc21` (centres undefined): 0.458 µM; for `CNC(=O)CN1Cc2ccc(Cl)cc2C2(CCN(c3cncc4ccc(F)cc34)C2=O)C1` (centres undefined): 0.267 µM. `CNC(=O)c1cc(Cl)cc(CC(=O)Nc2cnccc2C)c1`: the IC50 was 46.3 µM and 57.3 µM. For `Cn1ncc(C(=O)N(c2ccc(C(C)(C)C)cc2)C(C(=O)NCCc2cccc(F)c2)c2cccnc2)n1` (centres undefined) the value was 17.6 µM; for `O=C(CCl)N1CCN(Cc2cc(Cl)ccc2CNC(=O)N2CCOCC2)CC1`, 3.8 µM. The same measure for `Cc1ccnc(NC(=O)C2CCOc3ccc(Cl)cc32)c1N` (centres undefined): 71.6 µM. The same measure for `Cn1ccc2cncc(NC(=O)Cc3cccc(Cl)c3)c21`: 1.45 µM; for `Cc1ccncc1N(CC#N)C(=O)Cc1cccc(Cl)c1`: more than 99.5 µM. In turn, `COc1ccc2c(NC(=O)Cc3cccc(Cl)c3)cncc2c1` had a concentration for half-maximal inhibition (IC50) of 8.63 µM. For `CN(C1CC1)S(=O)(=O)N1Cc2ccc(Cl)cc2C(C(=O)Nc2cncc3ccccc23)C1` (centres undefined), the IC50 worked out at 0.104 µM. This IC50 lies about 83-fold lower than the previous one.

Compound `Cc1nnc(C2CCN(C(=O)c3ccc(Br)cc3)CC2)[nH]1` registered an IC50 of more than 99.5 µM. Compound `Cc1ccc(Nc2cc(Cl)cc(CC(=O)Nc3cncc4ccccc34)c2)cc1Br` yielded an IC50 of 2.07 µM.
